# Test results: patent US20090005745A1, “Transdermal drug delivery systems for delivering anti-inflammatory drugs” (priority 2007, published 2009)
# How the values were obtained:
# [1] = Ketoprofen plasma levels achieved by on-knee patch delivery (Example 7); format: in vivo, human; details: N = 22; for concentration at 2 h / concentration at 4 h / concentration at 6 h / concentration at 8 h / concentration at 10 h / concentration at 12 h / concentration at 14 h / concentration at 16 h / concentration at 18 h / concentration at 20 h / concentration at 24 h / concentration at 28 h / concentration at 32 h / concentration at 36 h / concentration at 42 h / concentration at 48 h: human, plasma, topical, Mean Ketoprofen Plasma Concentration; for concentration at 2 h: applied 12 h
# Description: In one study session, subjects received one patch above one knee and in the other study session subjects received two patches simultaneously, one above each knee. The patches were applied for 12 hours and venous blood samples were collected during both study session.
# [2] = Skin permeability using the Example 1 formulations (Example 6)
# From the text: Thus, adjustment of the drug concentration can be carried out in order to achieve a desired therapeutic effect.
smiles,measurement,setting,value
CC(C(=O)O)c1cccc(C(=O)c2ccccc2)c1 (centres unmarked) [Ketoprofen],Mean Ketoprofen Plasma Concentration produced by unit skin-drug contact area,"[1]; Single Patch, time point 2 hrs",0.078 ng/ml/cm^2
same,Mean Ketoprofen Plasma Concentration produced by unit skin-drug contact area,"[1]; Single Patch, time point 4 hrs",0.366 ng/ml/cm^2
same,Mean Ketoprofen Plasma Concentration produced by unit skin-drug contact area,"[1]; Single Patch, time point 6 hrs",0.562 ng/ml/cm^2
same,Mean Ketoprofen Plasma Concentration produced by unit skin-drug contact area,"[1]; Single Patch, time point 8 hrs",0.675 ng/ml/cm^2
same,Mean Ketoprofen Plasma Concentration produced by unit skin-drug contact area,"[1]; Single Patch, time point 10 hrs",0.770 ng/ml/cm^2
same,Mean Ketoprofen Plasma Concentration produced by unit skin-drug contact area,"[1]; Single Patch, time point 12 hrs",0.703 ng/ml/cm^2
same,Mean Ketoprofen Plasma Concentration produced by unit skin-drug contact area,"[1]; Single Patch, time point 14 hrs",0.464 ng/ml/cm^2
same,Mean Ketoprofen Plasma Concentration produced by unit skin-drug contact area,"[1]; Single Patch, time point 16 hrs",0.282 ng/ml/cm^2
same,Mean Ketoprofen Plasma Concentration produced by unit skin-drug contact area,"[1]; Single Patch, time point 18 hrs",0.213 ng/ml/cm^2
same,Mean Ketoprofen Plasma Concentration produced by unit skin-drug contact area,"[1]; Single Patch, time point 20 hrs",0.160 ng/ml/cm^2
same,Mean Ketoprofen Plasma Concentration produced by unit skin-drug contact area,"[1]; Single Patch, time point 24 hrs",0.095 ng/ml/cm^2
same,Mean Ketoprofen Plasma Concentration produced by unit skin-drug contact area,"[1]; Single Patch, time point 28 hrs",0.058 ng/ml/cm^2
same,Mean Ketoprofen Plasma Concentration produced by unit skin-drug contact area,"[1]; Single Patch, time point 32 hrs",0.035 ng/ml/cm^2
same,Mean Ketoprofen Plasma Concentration produced by unit skin-drug contact area,"[1]; Single Patch, time point 36 hrs",0.028 ng/ml/cm^2
same,Mean Ketoprofen Plasma Concentration produced by unit skin-drug contact area,"[1]; Single Patch, time point 42 hrs",0.023 ng/ml/cm^2
same,Mean Ketoprofen Plasma Concentration produced by unit skin-drug contact area,"[1]; Single Patch, time point 48 hrs",0.019 ng/ml/cm^2
same,Mean Ketoprofen Plasma Concentration,"[1]; Two Patches Dose-Normalized to one patch, time point 2 hrs",3.9 ng/mL
same,Mean Ketoprofen Plasma Concentration,"[1]; Two Patches Dose-Normalized to one patch, time point 4 hrs",44.6 ng/mL
same,Mean Ketoprofen Plasma Concentration,"[1]; Two Patches Dose-Normalized to one patch, time point 48 hrs",3.1 ng/mL
same,Mean Ketoprofen Plasma Concentration produced by unit skin-drug contact area,"[1]; Two Patches, time point 2 hrs",0.023 ng/ml/cm^2
same,Mean Ketoprofen Plasma Concentration produced by unit skin-drug contact area,"[1]; Two Patches, time point 4 hrs",0.259 ng/ml/cm^2
same,Mean Ketoprofen Plasma Concentration produced by unit skin-drug contact area,"[1]; Two Patches, time point 6 hrs",0.512 ng/ml/cm^2
same,Mean Ketoprofen Plasma Concentration produced by unit skin-drug contact area,"[1]; Two Patches, time point 8 hrs",0.630 ng/ml/cm^2
same,Mean Ketoprofen Plasma Concentration produced by unit skin-drug contact area,"[1]; Two Patches, time point 10 hrs",0.714 ng/ml/cm^2
same,Mean Ketoprofen Plasma Concentration produced by unit skin-drug contact area,"[1]; Two Patches, time point 12 hrs",0.665 ng/ml/cm^2
same,Mean Ketoprofen Plasma Concentration produced by unit skin-drug contact area,"[1]; Two Patches, time point 14 hrs",0.454 ng/ml/cm^2
same,Mean Ketoprofen Plasma Concentration produced by unit skin-drug contact area,"[1]; Two Patches, time point 16 hrs",0.280 ng/ml/cm^2
same,Mean Ketoprofen Plasma Concentration produced by unit skin-drug contact area,"[1]; Two Patches, time point 18 hrs",0.199 ng/ml/cm^2
same,Mean Ketoprofen Plasma Concentration produced by unit skin-drug contact area,"[1]; Two Patches, time point 20 hrs",0.152 ng/ml/cm^2
same,Mean Ketoprofen Plasma Concentration produced by unit skin-drug contact area,"[1]; Two Patches, time point 24 hrs",0.090 ng/ml/cm^2
same,Mean Ketoprofen Plasma Concentration produced by unit skin-drug contact area,"[1]; Two Patches, time point 28 hrs",0.054 ng/ml/cm^2
same,Mean Ketoprofen Plasma Concentration produced by unit skin-drug contact area,"[1]; Two Patches, time point 32 hrs",0.036 ng/ml/cm^2
same,Mean Ketoprofen Plasma Concentration produced by unit skin-drug contact area,"[1]; Two Patches, time point 36 hrs",0.029 ng/ml/cm^2
same,Mean Ketoprofen Plasma Concentration produced by unit skin-drug contact area,"[1]; Two Patches, time point 42 hrs",0.021 ng/ml/cm^2
same,Mean Ketoprofen Plasma Concentration produced by unit skin-drug contact area,"[1]; Two Patches, time point 48 hrs",0.018 ng/ml/cm^2
same,concentration at 2 h,"[1]; 136 mg, Single Patch (136 mg, 172 cm^2, heated) above one knee, time point 2 hrs",13.5 ng/mL
same,concentration at 4 h,"[1]; 136 mg, Single Patch, time point 4 hrs",62.9 ng/mL
same,concentration at 6 h,"[1]; 136 mg, Single Patch, time point 6 hrs",96.7 ng/mL
same,concentration at 8 h,"[1]; 136 mg, Single Patch, time point 8 hrs",116 ng/mL
same,concentration at 10 h,"[1]; 136 mg, Single Patch, time point 10 hrs",132 ng/mL
same,concentration at 12 h,"[1]; 136 mg, Single Patch, time point 12 hrs",121 ng/mL
same,concentration at 14 h,"[1]; 136 mg, Single Patch, time point 14 hrs",79.8 ng/mL
same,concentration at 16 h,"[1]; 136 mg, Single Patch, time point 16 hrs",48.5 ng/mL
same,concentration at 18 h,"[1]; 136 mg, Single Patch, time point 18 hrs",36.3 ng/mL
same,concentration at 20 h,"[1]; 136 mg, Single Patch, time point 20 hrs",27.6 ng/mL
same,concentration at 24 h,"[1]; 136 mg, Single Patch, time point 24 hrs",16.4 ng/mL
same,concentration at 28 h,"[1]; 136 mg, Single Patch, time point 28 hrs",10 ng/mL
same,concentration at 32 h,"[1]; 136 mg, Single Patch, time point 32 hrs",6.1 ng/mL
same,concentration at 36 h,"[1]; 136 mg, Single Patch, time point 36 hrs",4.9 ng/mL
same,concentration at 42 h,"[1]; 136 mg, Single Patch, time point 42 hrs",3.9 ng/mL
same,concentration at 48 h,"[1]; 136 mg, Single Patch, time point 48 hrs",3.2 ng/mL
same,concentration at 6 h,"[1]; 272 mg, Two Patches Dose-Normalized to one patch, time point 6 hrs",88.1 ng/mL
same,concentration at 8 h,"[1]; 272 mg, Two Patches Dose-Normalized to one patch, time point 8 hrs",108 ng/mL
same,concentration at 10 h,"[1]; 272 mg, Two Patches Dose-Normalized to one patch, time point 10 hrs",123 ng/mL
same,concentration at 12 h,"[1]; 272 mg, Two Patches Dose-Normalized to one patch, time point 12 hrs",114 ng/mL
same,concentration at 14 h,"[1]; 272 mg, Two Patches Dose-Normalized to one patch, time point 14 hrs",78.1 ng/mL
same,concentration at 16 h,"[1]; 272 mg, Two Patches Dose-Normalized to one patch, time point 16 hrs",48.2 ng/mL
same,concentration at 18 h,"[1]; 272 mg, Two Patches Dose-Normalized to one patch, time point 18 hrs",34.2 ng/mL
same,concentration at 20 h,"[1]; 272 mg, Two Patches Dose-Normalized to one patch, time point 20 hrs",26.1 ng/mL
same,concentration at 24 h,"[1]; 272 mg, Two Patches Dose-Normalized to one patch, time point 24 hrs",15.5 ng/mL
same,concentration at 32 h,"[1]; 272 mg, Two Patches Dose-Normalized to one patch, time point 32 hrs",6.2 ng/mL
same,concentration at 36 h,"[1]; 272 mg, Two Patches Dose-Normalized to one patch, time point 36 hrs",5 ng/mL
same,concentration at 42 h,"[1]; 272 mg, Two Patches Dose-Normalized to one patch, time point 42 hrs",3.6 ng/mL
same,concentration at 2 h,"[1]; 272 mg, Two Patches simultaneously, one above each knee, time point 2 hrs",7.8 ng/mL
same,concentration at 4 h,"[1]; 272 mg, Two Patches, time point 4 hrs",89.2 ng/mL
same,concentration at 6 h,"[1]; 272 mg, Two Patches, time point 6 hrs",176 ng/mL
same,concentration at 8 h,"[1]; 272 mg, Two Patches, time point 8 hrs",217 ng/mL
same,concentration at 10 h,"[1]; 272 mg, Two Patches, time point 10 hrs",246 ng/mL
same,concentration at 12 h,"[1]; 272 mg, Two Patches, time point 12 hrs",229 ng/mL
same,concentration at 14 h,"[1]; 272 mg, Two Patches, time point 14 hrs",156 ng/mL
same,concentration at 16 h,"[1]; 272 mg, Two Patches, time point 16 hrs",96.3 ng/mL
same,concentration at 18 h,"[1]; 272 mg, Two Patches, time point 18 hrs",68.4 ng/mL
same,concentration at 20 h,"[1]; 272 mg, Two Patches, time point 20 hrs",52.2 ng/mL
same,concentration at 24 h,"[1]; 272 mg, Two Patches, time point 24 hrs",31 ng/mL
same,concentration at 28 h,"[1]; 272 mg, Two Patches, time point 28 hrs",18.6 ng/mL
same,concentration at 32 h,"[1]; 272 mg, Two Patches, time point 32 hrs",12.3 ng/mL
same,concentration at 36 h,"[1]; 272 mg, Two Patches, time point 36 hrs",9.9 ng/mL
same,concentration at 42 h,"[1]; 272 mg, Two Patches, time point 42 hrs",7.2 ng/mL
same,concentration at 48 h,"[1]; 272 mg, Two Patches, time point 48 hrs",6.2 ng/mL
O=C(O)Cc1ccccc1Nc1c(Cl)cccc1Cl [diclofenac],Skin permeability compared with ketoprofen,[2],less skin permeable
